Data as given in US12103916B2, “Antifungal compounds” (University of Kentucky Research Foundation, priority 2016, dated 2024).
Read-outs that look alike come from different tables or passages of the source. Marks after values point to notes of the source that are not given here.

Key:
[1] = system: Candida albicans ATCC 10231; details: Table 1; strain A; control azoles FLC, ITC, POS, VOR; previously reported (refs 5, 16); cited from earlier work
C. albicans ATCC 64124 [2] = details: Table 1; strain B; control azoles; previously reported (refs 5, 16); cited from earlier work
[3] = system: C. albicans ATCC MYA-2876(S); details: Table 1; strain C; control azoles; previously reported (refs 5, 16); cited from earlier work
[4] = system: C. albicans ATCC 90819(R); details: Table 1; strain D; control azoles; previously reported (refs 5, 16); cited from earlier work
[5] = system: C. albicans ATCC MYA-2310(S); details: Table 1; strain E; control azoles; previously reported (refs 5, 16); cited from earlier work
[6] = system: C. albicans ATCC MYA-1237(R); details: Table 1; strain F; control azoles; previously reported (refs 5, 16); cited from earlier work
[7] = system: C. albicans ATCC MYA-1003(R); details: Table 1; strain G; control azoles; previously reported (refs 5, 16); cited from earlier work
[8] = system: Candida glabrata ATCC 2001; details: Table 1; strain H; control azoles; previously reported (refs 5, 16); cited from earlier work
Candida krusei ATCC 6258 [9] = details: Table 1; strain I; control azoles; previously reported (refs 5, 16); cited from earlier work
[10] = system: Candida parapsilosis ATCC 22019; details: Table 1; strain J; control azoles; previously reported (refs 5, 16); cited from earlier work
[11] = system: Aspergillus flavus ATCC MYA-3631; details: Table 1; strain K; control azoles; previously reported (refs 5, 16); cited from earlier work
[12] = system: Aspergillus nidulans ATCC 38163; details: Table 1; strain L; control azoles; previously reported (refs 5, 16); cited from earlier work
[13] = system: Aspergillus terreus ATCC MYA-3633; details: Table 1; strain M; control azoles; previously reported (refs 5, 16); cited from earlier work
C. albicans ATCC 64124 [14] = assay: MIC determination, strain B; assay type: cell-based, Candida albicans; details: Candida albicans, ATCC64124
Procedure: (§1) The antifungal activity of our new azole compounds 1-9 and 24-41 was first evaluated against a panel of seven Candida albicans strains (A-G), three non-albicans Candida strains […], and three Aspergillus strains (K-M) in a concentration range of 0.03-31.2 μg/mL (Table 1). […] For all of our azole derivatives we report their MIC-0 values against C. albicans ATCC 10231 (strain A) and all Aspergillus strains (K-M), which correspond to complete growth inhibition of these fungi. […] The commercially available antifungals AmB, FLC, ITC, POS, and VOR were used as reference drugs for comparison. The MIC values presented for these five control drugs were either tested herein or correspond to our previously published data^5, 16 as indicated in Table 1.
(§2) Antifungal activity in the absence or presence of serum. The antifungal activity of the newly prepared alkylated piperazine/morpholine-azole hybrids 16-28, of intermediate 14 that we used to verify that only final compounds exert antifungal activity, as well as that of alkylated piperazine/morpholine derivatives 1-10 were first evaluated against a panel of seven C. albicans (ATCC 10231 (A), ATCC 64124(R) (B), ATCC MYA-2876(S) (C), ATCC 90819(R) (D), ATCC MYA-2310(S) (E), ATCC MYA-1237(R) (F), and ATCC MYA-1003(R) (G)), three non-albicans Candida (C. glabrata ATCC 2001 (H), C. krusei ATCC 6258 (I), and C. parapsilosis ATCC 22019 (J)), and three Aspergillus (A. flavus ATCC MYA-3631 (K), A. nidulans ATCC 38163 (L), and A. terreus ATCC MYA-3633 (M)) strains using a concentration range of 0.03-31.3 μg/mL (Table 2).
(§3) Commercially available antifungal agents such as AmB, CAS, FLC, and VOR were used as positive controls for comparison. […] It is important to note that all comparisons to follow will be done by using the MIC values reported in μg/mL as the data were collected that way. However, we also present in parentheses in Table 2 the corresponding values in micromolar.
(§4) We used the commercially available antifungal agents such as AmB, caspofungin (CAS), FLC, and VOR as positive controls for comparison. For derivatives 5-16 as well as the reference drugs AmB and CAS, we reported MIC-0 values, which correspond to no visible growth. […] In this manuscript, we performed all activity comparisons by using the MIC values reported in μg/mL (Note: the corresponding MIC values are also provided in μM into parentheses in Tables 1, 2, S1, and S2).

[15] = system: C. albicans ATCC MYA-2876(S); assay: MIC determination, strain C; assay type: cell-based, Candida albicans; details: Candida albicans
Procedure: as §1, §2, §3, §4

[16] = system: C. albicans ATCC 90819(R); assay: MIC determination, strain D; assay type: cell-based, Candida albicans; details: Candida albicans, ATCC90819
Procedure: as §1, §2, §3, §4

[17] = system: C. albicans ATCC MYA-2310(S); assay: MIC determination, strain E; assay type: cell-based, Candida albicans; details: Candida albicans
Procedure: as §1, §2, §3, §4

[18] = system: Candida glabrata ATCC 2001; assay: MIC determination, strain H; assay type: cell-based; details: Nakaseomyces glabratus, ATCC2001
Procedure: as §1, §2, §3, §4

Candida krusei ATCC 6258 [19] = assay: MIC determination, strain I; assay type: cell-based; details: Pichia kudriavzevii, ATCC6258
Procedure: as §1, §2, §3, §4

[20] = system: Candida parapsilosis ATCC 22019; assay: MIC determination, strain J; assay type: cell-based; details: Lodderomyces parapsilosis, ATCC22019
Procedure: as §1, §2, §3, §4

[21] = system: ergosterol biosynthetic pathway (sterol 14α-demethylase) in C. albicans ATCC 10231 (strain A); assay: Sterol composition by GC-MS, strain A; assay type: cell-based, Candida albicans
Source text: (§5) FIG. 7A-FIG. 7H includes FIG. 7A. A simplified ergosterol biosynthetic pathway and products resulting from inhibition of ERG11. FIG. 7B-G. include GC-MS chromatograms of the sterols extracted from untreated and antifungals treated C. albicans strains. […] The peaks are for lanosterol (1), ergosterol (2), eburicol (3), 14-alpha-methyl ergosta 8,24(28)-dien-3-beta,6-alpha-diol (4), and unknown sterols (5 and 6). FIG. 7H is a table summarizing the percentage of each sterol from panels B-G.
FIG. 13A. A simplified ergosterol biosynthetic pathway and products resulting from inhibition of ERG11. FIG. 13B-FIG. 13F. GC-MS chromatograms of the sterols extracted from untreated and antifungal-treated C. albicans ATCC 10231 (strain A). […] The peaks in these chromatograms are for lanosterol (1), ergosterol (2), eburicol (3), 14α-methyl ergosta-8,24(28)-dien-3β,6α-diol (4), and three unknown sterols (5-7). FIG. 13G includes a table summarizing the percentage of each sterol from panels B-F.
(§6) No drug controls were also performed (FIGS. 7D and G).
Determination of sterol composition in c. albicans in the presence and absence of drugs. […] By using gas chromatography-mass spectrometry (GC-MS), we investigated the potential of the synthetic compounds to exert their antifungal activity by inhibiting the sterol 14α-demethylase enzyme of the ergosterol biosynthetic pathway (FIG. 13). […] A no drug control was also performed (FIG. 13A).
Since out of our compounds displaying antifungal activity only compound 8 caused membrane disruption of C. albicans ATCC 10231 (strain A) in the membrane permeabilization assay (section 2.6), we decided to explore by using gas chromatography-mass spectrometry (GC-MS) the effect of compounds 8 and 9 on sterol composition during ergosterol biosynthesis (the mechanism of action of other conventional azoles). […] We also used VOR at 0.12 μg/mL and no drug control for comparison.

[22] = system: ergosterol biosynthetic pathway (sterol 14α-demethylase) in C. albicans ATCC 64124 (strain B); assay: Sterol composition by GC-MS, strain B; assay type: cell-based, Candida albicans; details: Ex.1 series, 1.95 μg/mL
Source text: as §5, §6

[23] = bulk form; cited from earlier work
[24] = read-out: MIC (MIC-2), in parentheses

CCC(C)n1ncn(-c2ccc(N3CCN(c4ccc(OCC5COC(Cn6cncn6)(c6ccc(Cl)cc6Cl)O5)cc4)CC3)cc2)c1=O (stereo not drawn) [ITC, itraconazole]
MIC (MIC-2) [1]: 0.5^b μg/mL
MIC (MIC-2) (C. albicans ATCC 64124 [2]): >62.5^b μg/mL
MIC (MIC-2) [3]: 7.8^b μg/mL
MIC (MIC-2) [4]: 31.2^b μg/mL
MIC (MIC-2) [5]: 31.2^b μg/mL
MIC (MIC-2) [6]: 31.2^b μg/mL
MIC (MIC-2) [7]: 31.2^b μg/mL
MIC (MIC-2) [8]: 7.8^c μg/mL
MIC (MIC-2) (Candida krusei ATCC 6258 [9]): 0.48^c μg/mL
MIC (MIC-2) [10]: 0.12^c μg/mL
MIC (MIC-2) [11]: 0.48^c μg/mL
MIC (MIC-2) [12]: 0.195^b μg/mL
MIC (MIC-2) [13]: 0.975^c μg/mL

OC(Cn1cncn1)(Cn1cncn1)c1ccc(F)cc1F [FLC, fluconazole]
MIC (C. albicans ATCC 64124 [14]; read-out: MIC (MIC-2)): > 125 µg/mL
MIC (C. albicans ATCC 64124 [14]; [24]): > 408 µM
MIC ([15]; read-out: MIC (MIC-2)): 15.6 µg/mL
MIC [15, 24]: 50.9 µM
MIC ([16]; read-out: MIC (MIC-2)): > 125 µg/mL
MIC [16, 24]: > 408 µM
MIC ([17]; read-out: MIC (MIC-2)): > 125 µg/mL
MIC [17, 24]: > 408 µM
MIC ([18]; read-out: MIC (MIC-2)): > 31.3 µg/mL
MIC [18, 24]: > 102 µM
MIC (Candida krusei ATCC 6258 [19]; read-out: MIC (MIC-2)): > 31.3 µg/mL
MIC (Candida krusei ATCC 6258 [19]; [24]): > 102 µM
MIC ([20]; read-out: MIC (MIC-2)): 1.95 µg/mL
MIC [20, 24]: 6.4 µM
ergosterol, percentage of sterols ([21]; Ex.1 series, 0.125 μg/mL): ~93%
ergosterol (2), percentage of sterols ([21]; Ex.2 series, FLC 1.95, VOR 0.12, 20 0.48, 26 0.975 μg/mL): 95.90%
eburicol, percentage of sterols [22]: ~12%
ergosterol, percentage of sterols [22]: ~48%
lanosterol, percentage of sterols [22]: ~30%
MIC (MIC-2) [3]: 15.6^b μg/mL
MIC (MIC-2) [5]: >125^b μg/mL
MIC (MIC-2) [8]: >31.2^c μg/mL
MIC (MIC-2) (Candida krusei ATCC 6258 [9]): >31.2^c μg/mL
MIC (MIC-2) [10]: 1.95^c μg/mL
solubility in organic solvents such as DMSO [23]: highly soluble
solubility in water [23]: only slightly soluble

CC[C@@H]([C@H](C)O)n1ncn(-c2ccc(N3CCN(c4ccc(OC[C@@H]5CO[C@@](Cn6cncn6)(c6ccc(F)cc6F)C5)cc4)CC3)cc2)c1=O [POS, posaconazole]
MIC (MIC-2) [1]: 0.5^b μg/mL
MIC (MIC-2) (C. albicans ATCC 64124 [2]): >62.5^b μg/mL
MIC (MIC-2) [3]: 7.8^b μg/mL
MIC (MIC-2) [5]: 31.2^b μg/mL
MIC (MIC-2) [6]: 15.6^b μg/mL
MIC (MIC-2) [7]: 15.6^b μg/mL
MIC (MIC-2) [8]: 0.12^c μg/mL
MIC (MIC-2) (Candida krusei ATCC 6258 [9]): 0.06^c μg/mL
MIC (MIC-2) [10]: <0.03^c μg/mL
MIC (MIC-2) [11]: 0.24^c μg/mL
MIC (MIC-2) [12]: 0.195^b μg/mL
MIC (MIC-2) [13]: 0.48^c μg/mL
